According to the supplement of paper PMC10331698:
± gives the standard deviation of the averaged measurements.

Legend:
Assay in all cases: level (log10 ratio to DMSO vehicle control); higher = higher biomarker level / cell amount than vehicle control
Conditions in all cases: in DMSO
[1] = compound: FC(F)(F)C(F)(F)CNCC(F)(F)C(F)(F)F [Bis(1H,1H-perfluoropropyl)amine]
Method: (§1)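 BioMAP Diversity Plus panel of 12 human primary cell co-culture systems (3C, 4H, LPS, SAg, BT, BF4T, BE3C, CASM3C, HDF3CGF, KF3CT, MyoF, Mphg). Compounds were added 1 h before stimulation and left for 24 h (MyoF 48 h; BT 72 h for soluble read-outs or 6 d for IgG). Biomarkers were read by ELISA, cytotoxicity by SRB, PBMC viability and proliferation by Alamar Blue. Each well value was divided by the mean of 8 DMSO control wells on the same plate and log10 transformed; duplicate blinded samples were tested at 4 concentrations.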

Nonafluoropentanamide = compound: NC(=O)C(F)(F)C(F)(F)C(F)(F)C(F)(F)F [Nonafluoropentanamide]
Method: as §1

[2] = compound: O=C(O)C(F)(F)C(F)(F)C(F)(F)C(F)(F)C(F)(F)C(F)(F)C(F)(F)C(F)(F)C(F)(F)C(F)F [11-H-Perfluoroundecanoic acid]
Method: as §1

[3] = compound: O=S(=O)(Cl)C(F)(F)C(F)(F)C(F)(F)C(F)(F)C(F)(F)C(F)(F)C(F)(F)C(F)(F)F [Perfluoro-1-octanesulfonyl chloride]
Method: as §1

[4] = compound: O=S(=O)(F)C(F)(F)C(F)(F)C(F)(F)C(F)(F)C(F)(F)C(F)(F)C(F)(F)C(F)(F)F [Perfluorooctanesulfonyl fluoride]
Method: as §1

[5] = compound: O=S(=O)(O)C(F)(F)C(F)(F)C(F)(F)C(F)(F)C(F)(F)C(F)(F)C(F)(F)C(F)(F)C(F)(F)C(F)(F)F [Sodium perfluorodecanesulfonate]
Method: as §1

| Test System | level (log10) ([1]; 6700 nM) | level (log10) ([1]; 20000 nM) | level (log10) ([1]; 60000 nM) | level (log10) (Nonafluoropentanamide; 6700 nM) | level (log10) (Nonafluoropentanamide; 20000 nM) | level (log10) (Nonafluoropentanamide; 60000 nM) | level (log10) ([2]; 6700 nM) | level (log10) ([2]; 20000 nM) | level (log10) ([3]; 6700 nM) | level (log10) ([3]; 20000 nM) | level (log10) ([3]; 60000 nM) | level (log10) ([4]; 6700 nM) | level (log10) ([4]; 20000 nM) | level (log10) ([4]; 60000 nM) | level (log10) ([5]; 1500 nM) | level (log10) ([5]; 4400 nM) | level (log10) ([5]; 13000 nM) | level (log10) ([5]; 40000 nM) |
| --- | --- | --- | --- | --- | --- | --- | --- | --- | --- | --- | --- | --- | --- | --- | --- | --- | --- | --- |
| BF4T:MMP-3 | -0.013 ± 0.0028 | -0.0125 ± 0.0092 | 0.001 ± 0.025 | -0.03 ± 0.0099 | -0.0415 ± 0.012 | -0.0105 ± 0.015 | 0.0035 ± 0.046 | 0.002 ± 0.028 | -0.0125 ± 0.0021 | 0.0225 ± 0.028 | -0.0595 ± 0.0035 | -0.0015 ± 0.0021 | -0.0095 ± 0.025 | 0.026 ± 0.047 | -0.0175 ± 0.032 | -0.002 ± 0.0099 | 0.0175 ± 0.0078 | 0.054 ± 0.0042 |
| BF4T:MMP-9 | -0.013 ± 0.0057 | -0.013 ± 0.0042 | 0.0085 ± 0.036 | -0.026 ± 0.068 | -0.051 ± 0.016 | 0.004 ± 0.017 | -0.042 ± 0.047 | -0.154 ± 0.021 | 0.0055 ± 0.0078 | 0.0065 ± 0.021 | -0.314 ± 0.083 | 0.007 ± 0.02 | -0.007 ± 0.0099 | 0.015 ± 0.0028 | 0.0255 ± 0.0078 | -0.007 ± 0.045 | -0.0285 ± 0.015 | -0.058 ± 0.021 |
| BF4T:PAI-I | -0.008 ± 0.0014 | -0.005 | 0.006 ± 0.016 | -0.0145 ± 0.0064 | -0.0055 ± 0.0035 | 0.0015 ± 0.021 | -0.0455 ± 0.025 | -0.146 ± 0.034 | -0.001 ± 0.0085 | -0.015 ± 0.0099 | -0.17 ± 0.0078 | 0.004 ± 0.0014 | -0.0005 ± 0.0035 | 0.02 ± 0.0085 | -0.0015 ± 0.0092 | 0.0175 ± 0.005 | 0.0125 ± 0.0035 | 0.021 ± 0.0071 |
| BF4T:SRB | -0.004 ± 0.0071 | -0.0065 ± 0.0064 | 0.0005 ± 0.0078 | -0.018 ± 0.0042 | -0.017 ± 0.016 | -0.019 ± 0.0028 | -0.012 ± 0.0014 | -0.103 ± 0.0092 | -0.0015 ± 0.005 | -0.011 ± 0.0014 | -0.251 ± 0.0085 | -0.0025 ± 0.0035 | -0.002 ± 0.0042 | 0.0145 ± 0.025 | 0.004 ± 0.0071 | -0.0055 ± 0.005 | 0 ± 0.0057 | 0.006 ± 0.016 |
| BF4T:tPA | -0.062 ± 0.035 | -0.054 ± 0.023 | -0.0335 ± 0.0035 | -0.021 ± 0.018 | -0.043 ± 0.023 | -0.0405 ± 0.0078 | -0.131 ± 0.019 | -0.133 | -0.0495 ± 0.029 | -0.047 ± 0.057 | -0.181 ± 0.085 | -0.003 ± 0.027 | -0.0155 ± 0.016 | -0.008 ± 0.0099 | 0.01 ± 0.0071 | 0.0175 ± 0.059 | 0.075 ± 0.018 | 0.068 ± 0.016 |
| BF4T:uPA | -0.025 ± 0.011 | -0.0205 ± 0.013 | -0.0165 ± 0.0092 | -0.03 ± 0.023 | 0.009 ± 0.013 | 0.025 ± 0.0014 | -0.0095 ± 0.036 | -0.051 ± 0.038 | -0.028 ± 0.03 | -0.025 ± 0.025 | -0.113 ± 0.046 | 0.007 ± 0.0028 | 0 ± 0.011 | 0.0095 ± 0.0092 | 0.0165 ± 0.0035 | 0.013 ± 0.017 | 0.0415 ± 0.005 | 0.06 ± 0.027 |
| BT:B cell Proliferation | -0.005 ± 0.04 | 0.0145 ± 0.00071 | 0.0285 ± 0.0035 | 0.032 ± 0.0028 | -0.023 ± 0.0042 | 0.0085 ± 0.0092 | 0.023 ± 0.016 | 0.035 ± 0.031 | 0.01 ± 0.044 | 0.0345 ± 0.013 | 0.101 ± 0.011 | -0.0145 ± 0.016 | -0.011 ± 0.013 | 0.008 ± 0.021 | 0.0005 ± 0.021 | 0.0065 ± 0.0078 | 0.0015 ± 0.0035 | 0.0125 ± 0.0078 |
| BT:PBMC Cytotoxicity | 0.007 ± 0.013 | 0.005 ± 0.024 | 0.0125 ± 0.013 | 0.024 ± 0.0042 | 0.02 ± 0.0028 | 0.0155 ± 0.011 | 0.0055 ± 0.0035 | 0.0375 ± 0.0064 | 0.0495 ± 0.016 | 0.055 | 0.114 ± 0.0021 | -0.001 ± 0.016 | -0.01 ± 0.041 | -0.005 ± 0.0071 | -0.025 ± 0.023 | -0.005 ± 0.0042 | -0.0035 ± 0.026 | 0.007 ± 0.035 |
| BT:Secreted IgG | 0.0095 ± 0.0021 | 0.001 ± 0.023 | 0.0185 ± 0.00071 | -0.001 ± 0.0014 | -0.006 ± 0.0099 | -0.005 ± 0.014 | 0.007 ± 0.021 | 0.0175 ± 0.0092 | -0.033 ± 0.0042 | -0.0265 ± 0.039 | -0.042 ± 0.034 | 0.0025 ± 0.026 | 0.0185 ± 0.0035 | 0.004 ± 0.03 | -0.026 ± 0.038 | -0.0155 ± 0.022 | -0.0275 ± 0.046 | -0.028 ± 0.028 |
| BT:sIL-2 | -0.011 ± 0.064 | 0.012 ± 0.064 | 0.0645 ± 0.1 | 0.0345 ± 0.053 | 0.002 ± 0.033 | -0.0105 ± 0.011 | -0.0265 ± 0.013 | -0.008 ± 0.083 | 0.0385 ± 0.047 | 0.104 ± 0.042 | 0.13 ± 0.018 | -0.038 ± 0.058 | -0.001 ± 0.042 | 0 ± 0.1 | 0.0125 ± 0.09 | 0.014 ± 0.051 | 0.0265 ± 0.1 | 0.12 ± 0.064 |
| BT:sIL-6 | 0.0285 ± 0.0064 | 0.02 ± 0.013 | 0.0245 ± 0.011 | -0.0015 ± 0.039 | -0.0035 ± 0.036 | -0.0665 ± 0.03 | -0.033 ± 0.034 | -0.0465 ± 0.046 | 0.0135 ± 0.016 | 0.043 ± 0.025 | 0.0195 ± 0.033 | -0.055 ± 0.037 | -0.021 ± 0.047 | -0.037 ± 0.048 | 0 ± 0.031 | -0.0045 ± 0.026 | -0.036 ± 0.1 | -0.0235 ± 0.05 |
| BT:sIL-17A | -0.0465 ± 0.067 | -0.075 ± 0.13 | -0.069 ± 0.25 | -0.145 ± 0.18 | 0.05 ± 0.064 | -0.213 ± 0.17 | 0.003 ± 0.0057 | -0.0485 ± 0.061 | -0.0095 ± 0.08 | 0.0335 ± 0.071 | -0.084 ± 0.15 | -0.047 ± 0.098 | -0.176 ± 0.021 | -0.112 ± 0.021 | 0.0435 ± 0.16 | 0.057 ± 0.17 | 0.052 ± 0.3 | -0.0495 ± 0.11 |
| BT:sIL-17F | -0.088 ± 0.042 | -0.0175 ± 0.076 | 0.0375 ± 0.0064 | -0.0305 ± 0.12 | -0.0695 ± 0.14 | -0.101 ± 0.15 | 0.0115 ± 0.0092 | -0.0225 ± 0.049 | 0.062 ± 0.054 | 0.0385 ± 0.0035 | 0.0705 ± 0.012 | -0.0145 ± 0.032 | -0.0345 ± 0.079 | 0.035 ± 0.12 | -0.025 ± 0.083 | 0.0315 ± 0.1 | 0.0615 ± 0.19 | 0.025 ± 0.086 |
| LPS:M-CSF | -0.006 ± 0.083 | -0.0485 ± 0.12 | -0.0485 ± 0.087 | 0.0065 ± 0.07 | -0.0075 ± 0.04 | -0.011 ± 0.0042 | -0.0035 ± 0.018 | 0.012 ± 0.038 | -0.079 ± 0.045 | -0.0105 ± 0.025 | 0.116 ± 0.035 | -0.005 ± 0.021 | 0.0045 ± 0.0092 | 0.006 ± 0.017 | 0.0045 ± 0.021 | 0.005 ± 0.0057 | 0.01 ± 0.027 | -0.006 ± 0.037 |
| LPS:sPGE2 | 0.038 ± 0.033 | 0.005 ± 0.0014 | 0.0485 ± 0.067 | -0.0015 ± 0.013 | -0.0115 ± 0.016 | -0.022 ± 0.0099 | 0.018 ± 0.023 | -0.006 ± 0.042 | 0.0585 ± 0.0078 | -0.02 ± 0.016 | -0.272 ± 0.03 | 0.0045 ± 0.039 | -0.0015 ± 0.005 | -0.0265 ± 0.056 | 0.035 ± 0.02 | 0.006 ± 0.041 | -0.009 ± 0.04 | -0.123 ± 0.023 |
| LPS:sTNF-alpha | 0.007 ± 0.028 | 0.005 ± 0.013 | -0.0005 ± 0.0078 | 0.018 ± 0.037 | 0.0125 ± 0.0092 | -0.043 ± 0.013 | 0.0065 ± 0.0092 | 0.0135 ± 0.0035 | -0.0175 ± 0.044 | -0.002 ± 0.045 | -0.026 ± 0.052 | -0.009 ± 0.0057 | 0 ± 0.0014 | -0.0015 ± 0.013 | -0.0135 ± 0.0078 | -0.0375 ± 0.059 | -0.162 ± 0.0085 | -0.42 ± 0.052 |
